Measurements: ChEMBL document CHEMBL5257097, “An Isomer of Galidesivir That Potently Inhibits Influenza Viruses and Members of the Bunyavirales Order” (ACS Med Chem Lett, 2023)
pEC50: −log10 of the molar value.

Assays:
[1] = (§1) Selectivity index, ratio of CC50 for cytotoxicity against dog MDCK cells infected with Influenza A virus H1N1 assessed as reduction in cell viability by neutral red dye based analysis to EC50 for antiviral activity against Influenza A virus H1N1 infected in dog MDCK cells assessed as reduction in virus-induced cytopathic effect by neutral red dye based analysis; type: toxicity; settings: read-out: Ratio CC50/EC50
[2] = Cytotoxicity against African green monkey Vero E6 cells infected with Maporal virus assessed as reduction in cell viability; type: toxicity, cell-based, Vero C1008; settings: chlorocebus sabaeus
[3] = Selectivity index, ratio of CC50 for cytotoxicity against African green monkey Vero 76 cells infected with Zika virus assessed as reduction in cell viability by neutral red dye based analysis to EC50 for antiviral activity against Zika virus infected in African green monkey Vero 76 cells assessed as reduction in virus-induced cytopathic effect by neutral red based spectrophotometric analysis; type: toxicity; settings: read-out: Ratio CC50/EC50
[4] = Cytotoxicity against African green monkey Vero 76 cells infected with Zika virus assessed as reduction in cell viability by neutral red dye based assay; type: toxicity; settings: chlorocebus sabaeus
Rift Valley fever virus [5] = test: Antiviral activity against Rift valley fever virus infected in African green monkey Vero 76 cells assessed as reduction in virus-induced cytopathic effect measured after 15 to 30 mins by neutral red dye based analysis; type: functional, organism-based
[6] = Cytotoxicity against dog MDCK cells infected with Influenza A virus H1N1 assessed as reduction in cell viability by neutral red dye based assay; type: toxicity, Canis lupus familiaris
[7] = (§2) Selectivity index, ratio of CC50 for cytotoxicity against human Huh-7 cells infected with Yellow fever virus assessed as reduction in cell viability by neutral red dye based assay to EC50 for antiviral activity against Yellow fever virus infected in human Huh-7 cells assessed as reduction in virus-induced cytopathic effect by neutral red based analysis; type: toxicity; settings: read-out: Ratio CC50/EC50
[8] = as §2, with “DENV-2” for “Yellow fever virus”, “analysis” for “dye based assay”, “red” for “red based”; type: toxicity, cell-based; settings: read-out: Ratio CC50/EC50
[9] = system: Orthohantavirus maporalense; test: Antiviral activity against Maporal virus infected in African green monkey Vero E6 cells assessed as reduction in viral yield measured for 3 days; type: functional; settings: Vero C1008, 72 h, time 3 day
Zika virus [10] = test: Antiviral activity against Zika virus infected in African green monkey Vero 76 cells assessed as reduction in virus-induced cytopathic effect measured after 15 to 30 mins by neutral red based spectrophotometric analysis; type: functional, organism-based
[11] = system: Middle East respiratory syndrome-related coronavirus; test: Antiviral activity against MERS-CoV infected in African green monkey Vero 76 cells assessed as reduction in virus-induced cytopathic effect measured after 15 to 30 mins by neutral red dye based analysis; type: functional, organism-based
[12] = Cytotoxicity against African green monkey Vero 76 cells infected with MERS-CoV assessed as reduction in cell viability by neutral red dye based analysis; type: toxicity; settings: chlorocebus sabaeus
[13] = Cytotoxicity against dog MDCK cells infected with Influenza A virus H1N1 assessed as reduction in cell viability by visual analysis; type: toxicity, cell-based, Canis lupus familiaris
Huh-7 [14] = test: Cytotoxicity against human Huh-7 cells infected with Yellow fever virus assessed as reduction in cell viability by visual assay; type: functional
Yellow fever virus [15] = test: Antiviral activity against Yellow fever virus infected in human Huh-7 cells assessed as reduction in virus-induced cytopathic effect measured after 15 to 30 mins by neutral red based analysis; type: functional, organism-based
Influenza A virus [16] = test: Antiviral activity against Influenza A virus H1N1 infected in dog MDCK cells assessed as reduction in virus-induced cytopathic effect measured after 15 to 30 mins by neutral red based analysis; type: functional, organism-based
Rift Valley fever virus [17] = test: Antiviral activity against Rift valley fever virus infected in African green monkey Vero 76 cells assessed as reduction in virus-induced cytopathic effect measured after 15 to 30 mins by visual analysis; type: functional, organism-based
[18] = as §2, with “visual analysis” for “neutral red dye based assay”, “visual” for “neutral red based”; type: toxicity, cell-based; settings: read-out: Ratio CC50/EC50
[19] = Cytotoxicity against African green monkey Vero 76 cells infected with Rift valley fever virus assessed as reduction in cell viability by visual analysis; type: toxicity, cell-based; settings: chlorocebus sabaeus
[20] = Selectivity index, ratio of CC50 for cytotoxicity against African green monkey Vero 76 cells infected with Rift valley fever virus assessed as reduction in cell viability by neutral red dye based analysis to EC50 for antiviral activity against Rift valley fever virus infected in African green monkey Vero 76 cells assessed as reduction in virus-induced cytopathic effect by neutral red dye based analysis; type: toxicity; settings: read-out: Ratio CC50/EC50
dengue virus type 2 [21] = test: Antiviral activity against DENV-2 infected in human Huh-7 cells assessed as reduction in virus-induced cytopathic effect measured after 15 to 30 mins by visual analysis; type: functional, organism-based
[22] = as §2, with “DENV-2” for “Yellow fever virus”, “visual analysis” for “neutral red dye based assay”, “visual” for “neutral red based”; type: toxicity, cell-based; settings: read-out: Ratio CC50/EC50
Huh-7 [23] = test: Cytotoxicity against human Huh-7 cells infected with DENV-2 assessed as reduction in cell viability by neutral red dye based assay; type: functional
[24] = Selectivity index, ratio of CC50 for cytotoxicity against African green monkey Vero 76 infected with Zika virus assessed as reduction in cell viability by visual analysis to EC50 for antiviral activity against Zika virus infected in African green monkey Vero 76 cells assessed as reduction in virus-induced cytopathic effect by visual analysis; type: toxicity, cell-based; settings: Vero 76 cells infected with Zika virus, read-out: Ratio CC50/EC50
[25] = Toxicity in BALB/c mouse infected with influenza A/Ca/04/09 (H1N1) assessed as mortality at 300 mg/kg, ip measured every day for 6 days; type: organism-based; settings: in vivo, time 6 day, read-out: Activity
[26] = as §1, with “visual” for “neutral red dye based”; type: toxicity, cell-based; settings: read-out: Ratio CC50/EC50
Influenza A virus [27] = test: Antiviral activity against Influenza A virus H1N1 infected in dog MDCK cells assessed as reduction in virus-induced cytopathic effect measured after 15 to 30 mins by visual analysis; type: functional, organism-based
[28] = Cytotoxicity against African green monkey Vero 76 cells infected with MERS-CoV assessed as reduction in cell viability by visual analysis; type: toxicity, cell-based; settings: chlorocebus sabaeus
[29] = Selectivity index, ratio of CC50 for cytotoxicity against African green monkey Vero 76 cells infected with Rift valley fever virus assessed as reduction in cell viability by visual analysis to EC50 for antiviral activity against Rift valley fever virus infected in African green monkey Vero 76 cells assessed as reduction in virus-induced cytopathic effect by visual analysis; type: toxicity, cell-based; settings: read-out: Ratio CC50/EC50
La Crosse virus = test: Antiviral activity against La Crosse virus infected in African green monkey Vero E6 cells assessed as inhibition of viral replication by neutral red dye based analysis; type: functional, organism-based; settings: Vero C1008
Zika virus [30] = test: Antiviral activity against Zika virus infected in African green monkey Vero 76 cells assessed as reduction in virus-induced cytopathic effect measured after 15 to 30 mins by visual analysis; type: functional, organism-based
[31] = system: Middle East respiratory syndrome-related coronavirus; test: Antiviral activity against MERS-CoV infected in African green monkey Vero 76 cells assessed as reduction in virus-induced cytopathic effect measured after 15 to 30 mins by visual analysis; type: functional, organism-based
Yellow fever virus [32] = test: Antiviral activity against Yellow fever virus infected in human Huh-7 cells assessed as reduction in virus-induced cytopathic effect measured after 15 to 30 mins by visual analysis; type: functional, organism-based; settings: Yellow fever virus, Huh-7; read-out: EC50
Huh-7 [33] = test: Cytotoxicity against human Huh-7 cells infected with DENV-2 assessed as reduction in cell viability by visual analysis; type: functional
Huh-7 [34] = test: Cytotoxicity against human Huh-7 cells infected with Yellow fever virus assessed as reduction in cell viability by neutral red dye based assay; type: functional
[35] = Cytotoxicity against African green monkey Vero 76 cells infected with Zika virus assessed as reduction in cell viability by visual analysis; type: toxicity, cell-based; settings: chlorocebus sabaeus
dengue virus type 2 [36] = test: Antiviral activity against DENV-2 infected in human Huh-7 cells assessed as reduction in virus-induced cytopathic effect measured after 15 to 30 mins by neutral red based analysis; type: functional, organism-based
[37] = Cytotoxicity against African green monkey Vero 76 cells infected with Rift valley fever virus assessed as reduction in cell viability by neutral red dye based analysis; type: toxicity; settings: chlorocebus sabaeus
Influenza A virus [38] = test: Antiviral activity against Influenza A virus H1N1 infected in dog MDCK cells assessed as reduction in virus yield measured after 3 days by visual analysis; type: functional; settings: 72 h, time 3 day

## Nc1ncnn2c([C@@H]3N[C@H](CO)[C@@H](O)[C@H]3O)ccc12
[1]
  selectivity ratio: 23
[2]
  CC50: 13 µM
[3]
  selectivity ratio: 12
[4]
  CC50: 4.4 µM
Rift Valley fever virus [5]
  pEC50: > 7.00
[6]
  CC50: 3 µM
[7]
  selectivity ratio: 8.6
[8]
  selectivity ratio: 2.9
[9]
  EC90: 0.86 µM
Zika virus [10]
  pEC50: 6.42
[11]
  pEC50: 4.49
[12]
  CC50: 4.4 µM
[13]
  CC50: 24 µM
Huh-7 [14]
  CC50: 3.2 µM
Yellow fever virus [15]
  pEC50: 6.30
Influenza A virus [16]
  pEC50: 6.55
Rift Valley fever virus [17]
  pEC50: > 7.00
[18]
  selectivity ratio: 8.6
[19]
  CC50: 10 µM
[20]
  selectivity ratio: > 89
Dengue virus type 2 [21]
  pEC50: 6.49
[22]
  selectivity ratio: 10
Huh-7 [23]
  CC50: 2.9 µM
[24]
  selectivity ratio: 19
[25]
  mortality at 144 h: 100%
[26]
  selectivity ratio: 57
Influenza A virus [27]
  pEC50: 6.38
[28]
  CC50: 10 µM
[29]
  selectivity ratio: > 100
La Crosse virus
  pEC50: > 7.00
Zika virus [30]
  pEC50: 6.49
[31]
  pEC50: 6.49
Yellow fever virus [32]
  pEC50: 6.43
Huh-7 [33]
  CC50: > 100 µM
Huh-7 [34]
  CC50: 3.2 µM
[35]
  CC50: 6.1 µM
Dengue virus type 2 [36]
  pEC50: 6.42
[37]
  CC50: 8.9 µM
Influenza A virus [38]
  EC90: 0.1 µM

## Nc1ncnc2c([C@@H]3N[C@H](CO)[C@@H](O)[C@H]3O)c[nH]c12 [GALIDESIVIR]
[1]
  selectivity ratio: > 30
[3]
  selectivity ratio: > 3
[4]
  CC50: > 100 µM
Rift Valley fever virus [5]
  pEC50: 4.57
[6]
  CC50: > 100 µM
[7]
  selectivity ratio: > 5.6
[8]
  selectivity ratio: > 100
Zika virus [10]
  pEC50: 4.48
[11]
  pEC50: < 4.00
[12]
  CC50: > 100 µM
[13]
  CC50: > 100 µM
Huh-7 [14]
  CC50: > 100 µM
Yellow fever virus [15]
  pEC50: 4.74
Influenza A virus [16]
  pEC50: 5.48
Rift Valley fever virus [17]
  pEC50: 4.64
[18]
  selectivity ratio: > 3.6
[19]
  CC50: > 100 µM
[20]
  selectivity ratio: > 3.7
Dengue virus type 2 [21]
  pEC50: 4.89
[22]
  selectivity ratio: > 7.7
Huh-7 [23]
  CC50: > 100 µM
[24]
  selectivity ratio: > 8.3
[26]
  selectivity ratio: > 28
Influenza A virus [27]
  pEC50: 5.44
[28]
  CC50: > 100 µM
[29]
  selectivity ratio: > 4.3
Zika virus [30]
  pEC50: 4.92
[31]
  pEC50: < 4.00
Yellow fever virus [32]
  pEC50: < 4.00
Huh-7 [33]
  CC50: > 100 µM
Huh-7 [34]
  CC50: > 100 µM
[35]
  CC50: > 100 µM
Dengue virus type 2 [36]
  pEC50: 4.80
[37]
  CC50: > 100 µM
